# Laboratory results published in patent US20030135023A1, “Peptide structures useful for competitive modulation of dipeptidyl peptidase IV catalysis” (priority 2001, published 2003).
# pKi: −log10 of the molar value. Several values for one entry are separate records, joined by “and”; a condition that tells them apart may be missing. Equal values may be shown once. Square brackets hold non-standard residues; d marks the D form. Peptide text beside a SMILES is read from it. Tle = CC(C)(C)[C@H](N)C(=O)O
# Columns and labels:
# purified porcine DP IV = purified porcine DP IV (Sus scrofa, UniProt P22411); test: Determination of Ki-values, Gly-Pro-pNA cleavage by DP IV; type: biochemical; settings: Gly-Pro-pNA 0.05-0.4 mM
# Chain of purified porcine DP IV (P22411 whole entry): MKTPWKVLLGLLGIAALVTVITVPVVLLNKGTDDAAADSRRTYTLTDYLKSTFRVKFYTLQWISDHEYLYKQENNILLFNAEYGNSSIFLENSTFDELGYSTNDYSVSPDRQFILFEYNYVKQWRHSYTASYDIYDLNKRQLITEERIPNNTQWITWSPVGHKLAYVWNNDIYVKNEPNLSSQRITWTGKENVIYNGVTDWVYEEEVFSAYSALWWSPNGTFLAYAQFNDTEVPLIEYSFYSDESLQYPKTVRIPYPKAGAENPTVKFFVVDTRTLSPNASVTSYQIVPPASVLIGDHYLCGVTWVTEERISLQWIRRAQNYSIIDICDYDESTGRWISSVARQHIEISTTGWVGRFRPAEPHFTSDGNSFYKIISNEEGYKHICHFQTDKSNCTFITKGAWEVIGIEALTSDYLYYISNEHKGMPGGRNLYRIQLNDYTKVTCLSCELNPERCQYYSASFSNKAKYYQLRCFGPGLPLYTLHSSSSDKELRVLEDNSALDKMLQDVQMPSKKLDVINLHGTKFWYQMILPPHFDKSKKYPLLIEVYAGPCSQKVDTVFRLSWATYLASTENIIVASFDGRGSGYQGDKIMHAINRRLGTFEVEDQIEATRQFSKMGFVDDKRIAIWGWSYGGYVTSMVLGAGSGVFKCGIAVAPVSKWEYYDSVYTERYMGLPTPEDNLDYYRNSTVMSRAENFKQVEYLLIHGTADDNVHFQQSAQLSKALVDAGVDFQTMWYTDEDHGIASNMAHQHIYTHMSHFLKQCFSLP
# Description: 100 μl inhibitor stock solution were mixed with 100 μl buffer (HEPES pH 7.6) and 50 μl substrate (Gly-Pro-pNA, final concentration 0.4 mM) and preincubated at 30° C. Reaction was started by addition of 20 μl purified porcine DP IV. Formation of the product pNA was measured at 405 nm over 10 min using the HTS 7000 Plus plate reader (Perkin Elmer) and slopes were calculated. The final inhibitor concentrations ranged between 1 mM and 30 nM.
# Calculations were performed using the GraFit Software.
# plasma DP IV = target: T1, plasma DP IV (Rattus norvegicus, UniProt P14740); test: Plasma DP IV activity after intravasal and oral administration in Wistar rats; type: in vivo; settings: for Plasma DP IV activity / DP IV-AUC / Drop of plasma DP IV activity: iv (intravasal) 100 mg/kg b.w.
# T1 construct: The assay mixture consisted of 80 μl reagent and 20 μl plasma; from tissue; host or cells: plasma of Wistar rats
# T1 sequence (P14740 37-767 limits assumed): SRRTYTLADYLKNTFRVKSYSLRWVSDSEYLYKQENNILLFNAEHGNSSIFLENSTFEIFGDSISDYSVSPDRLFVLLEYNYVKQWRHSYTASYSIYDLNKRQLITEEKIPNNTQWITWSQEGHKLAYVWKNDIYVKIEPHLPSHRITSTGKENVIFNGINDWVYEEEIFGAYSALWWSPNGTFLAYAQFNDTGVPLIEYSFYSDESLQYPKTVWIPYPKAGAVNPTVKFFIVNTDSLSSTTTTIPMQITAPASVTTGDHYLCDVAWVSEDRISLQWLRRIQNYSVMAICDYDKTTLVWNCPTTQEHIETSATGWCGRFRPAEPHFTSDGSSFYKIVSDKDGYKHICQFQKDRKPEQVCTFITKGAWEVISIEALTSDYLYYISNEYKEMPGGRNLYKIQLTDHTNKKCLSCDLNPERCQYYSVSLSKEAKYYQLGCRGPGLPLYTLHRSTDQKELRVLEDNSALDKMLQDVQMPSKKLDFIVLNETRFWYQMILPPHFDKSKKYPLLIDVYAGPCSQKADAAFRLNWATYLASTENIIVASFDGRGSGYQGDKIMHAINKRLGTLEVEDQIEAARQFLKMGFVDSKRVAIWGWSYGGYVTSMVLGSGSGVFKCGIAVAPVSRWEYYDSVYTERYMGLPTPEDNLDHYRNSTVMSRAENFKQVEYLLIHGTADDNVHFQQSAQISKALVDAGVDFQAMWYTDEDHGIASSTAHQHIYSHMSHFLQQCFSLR
# Description: Rats with intact catheter function were given the test substances intravasal (intraarterial) or oral, respectively, in random order (N=3 Wistar rats in each group). As positive control, […]. isoleucine thiazolidine*fumarate were administered intravasal.
# After overnight fasting, 100 μl samples of heparinized arterial blood were collected at −30, −5, and 0 min into ice-cooled Eppendorf tubes (see below). The test substances were dissolved freshly in 1.0 ml saline (0.154 mol/l) and were given at 0 min either oral via a feeding tube ([…], 75 mm; Fine Science Tools, Heidelberg, Germany) or intravasal. For the intravasal route, the catheter was immediately flushed with 30 μl saline and an additional 1 ml of saline was given orally via the feeding tube.
# Arterial blood samples were taken thereafter at 5, 10 (only in a limited number of experiments), 20, 40, 60 and 120 min from the carotid catheter of the conscious unrestrained rats and were always given into ice cooled Eppendorf tubes (Eppendorf-Netheler-Hinz, Hamburg, Germany) filled with 10 μl 1 M citrate buffer pH 3.0 for prevention of further hydrolysis of tripeptides by plasma DP IV activity. Eppendorf tubes were centrifuged immediately (12000 rpm for 2 min, Hettich Zentrifuge EBA 12, Tuttlingen; Germany): The plasma fractions were store on ice until analysis or were deeply frozen at −20 ° C. until analysis.
# Plasma DP IV activity: The assay mixture consisted of 80 μl reagent and 20 μl plasma. Kinetic measurements of the formation of the yellow product 4-nitroaniline were performed at 390 nm for 1 min at 30° C. after 2 min pre-incubation at the same temperature. The activity was expressed as arbitrary units [AU] and DP IV activity [mU/ml].
# The absolute values of plasma DP IV activity, the relative change of plasma DP IV activity and the time and extent of maximal inhibition were calculated. Data presentation included the presentation of area under the curve (AUC), which was used for evaluation of extent of inhibition of plasma DP IV activity during the two hours of observation. AUC was calculated using the trapezoidal rule.
# To compare relative changes of parameters under the conditions of different initial values of DP IV activity an uniform standardised mean (values) was set up at the beginning of the test (see Figures and Tables).
# Statistical evaluations were performed with Microsoft Excel® 97. All variables are presented as mean and standard deviation (SD). Treatment groups were compared by Student's t-test, within-group changes by paired t-test. Two-tailed values of p<0.05 were considered significant.
smiles,measurement,setting,value
CC[C@H](C)[C@H](NC(=O)[C@@H]1CCCN1C(=O)[C@@H](N)C(C)(C)C)C(=O)O [t-butyl-Gly-Pro-Ile] (H-[Tle]-Pro-Ile-OH; N-terminus and C-terminus assumed),pKi,purified porcine DP IV,5.51
same,DP IV-AUC0-120 min,plasma DP IV; intra-vasal 100 mg/kg b.w.,−617±234 mU·min·ml^−1
same,plasma DP IV at 5 min,"plasma DP IV; intravasal 100 mg/kg b.w., p<0.05",below 10 mU/ml
same,Plasma DP IV activity,"plasma DP IV; 2.5 min, Mean",19.01 mU/ml
same,Plasma DP IV activity,"plasma DP IV; 2.5 min, Standardized Mean",15.18 mU/ml
same,Plasma DP IV activity,"plasma DP IV; 2.5 min, individual animals, 100 mg/kg",15.35 mU/ml and 27.63 mU/ml and 14.04 mU/ml
same,Plasma DP IV activity,"plasma DP IV; 5 min, Mean",18.86 mU/ml
same,Plasma DP IV activity,"plasma DP IV; 5 min, Standardized Mean",15.03 mU/ml
same,Plasma DP IV activity,"plasma DP IV; 5 min, individual animals, 100 mg/kg",15.35 mU/ml and 25.00 mU/ml and 16.23 mU/ml
same,Plasma DP IV activity,"plasma DP IV; 7.5 min, Mean",21.05 mU/ml
same,Plasma DP IV activity,"plasma DP IV; 7.5 min, Standardized Mean",17.22 mU/ml
same,Plasma DP IV activity,"plasma DP IV; 7.5 min, individual animals, 100 mg/kg",17.11 mU/ml and 27.63 mU/ml and 18.42 mU/ml
same,Plasma DP IV activity,"plasma DP IV; 10 min, Mean",17.25 mU/ml
same,Plasma DP IV activity,"plasma DP IV; 10 min, Standardized Mean",13.42 mU/ml
same,Plasma DP IV activity,"plasma DP IV; 10 min, individual animals, 100 mg/kg",17.11 mU/ml and 20.18 mU/ml and 14.47 mU/ml
same,Plasma DP IV activity,"plasma DP IV; 15 min, Mean",15.50 mU/ml
same,Plasma DP IV activity,"plasma DP IV; 15 min, Standardized Mean",11.67 mU/ml
same,Plasma DP IV activity,"plasma DP IV; 15 min, individual animals, 100 mg/kg",14.47 mU/ml and 18.42 mU/ml and 13.60 mU/ml
same,Plasma DP IV activity,"plasma DP IV; 20 min, Mean",18.71 mU/ml
same,Plasma DP IV activity,"plasma DP IV; 20 min, Standardized Mean",14.88 mU/ml
same,Plasma DP IV activity,"plasma DP IV; 20 min, individual animals, 100 mg/kg",15.35 mU/ml (2×) and 25.44 mU/ml
same,Plasma DP IV activity,"plasma DP IV; 40 min, Mean",17.98 mU/ml
same,Plasma DP IV activity,"plasma DP IV; 40 min, Standardized Mean",14.15 mU/ml
same,Plasma DP IV activity,"plasma DP IV; 40 min, individual animals, 100 mg/kg",14.91 mU/ml and 23.68 mU/ml and 15.35 mU/ml
same,Plasma DP IV activity,"plasma DP IV; 60 min, Mean",17.25 mU/ml
same,Plasma DP IV activity,"plasma DP IV; 60 min, Standardized Mean",13.42 mU/ml
same,Plasma DP IV activity,"plasma DP IV; 60 min, individual animals, 100 mg/kg",15.79 mU/ml and 22.37 mU/ml and 13.60 mU/ml
same,Plasma DP IV activity,"plasma DP IV; 120 min, Mean",19.44 mU/ml
same,Plasma DP IV activity,"plasma DP IV; 120 min, Standardized Mean",15.61 mU/ml
same,Plasma DP IV activity,"plasma DP IV; 120 min, individual animals, 100 mg/kg",17.11 mU/ml and 25.88 mU/ml and 15.35 mU/ml
same,DP IV-AUC,plasma DP IV; Mean,−673.4 AU · min
same,Drop of plasma DP IV activity,plasma DP IV; Mean,5.19 mU/ml
same,DP IV-AUC,"plasma DP IV; individual animals, 100 mg/kg",−452.9 AU · min and −1179.3 AU · min and −388.2 AU · min
same,Drop of plasma DP IV activity,"plasma DP IV; individual animals, 100 mg/kg",5.70 mU/ml and 6.58 mU/ml and 3.29 mU/ml
same,time period over which plasma DP IV decreased slowly,plasma DP IV; oral 100 mg/kg b.w.,40 min
